{
  "source": "patent US6979677B1",
  "about": "“Inhibition of vascular smooth muscle cell proliferation” (priority 1994, dated 2005)",
  "origin": "cited, not measured here",
  "key": {"cerebral glioma": {"tested_on": "cerebral glioma", "conditions": "rats with HSV-tk-expressing murine fibroblasts, given GCV"}, "lymphomas": {"tested_on": "lymphomas", "conditions": "of 12 mice treated with GCV"}, "[1]": {"tested_on": "transplantable murine adenocarcinoma", "conditions": "HSV-tk transfected adenocarcinoma treated with GCV"}, "[2]": {"tested_on": "nondividing rabbit arterial cells"}},
  "data": [
    {"smiles": "Nc1nc(O)c2ncn(COC(CO)CO)c2n1", "note": "[GCV, ganciclovir]", "values": [
      {"measurement": "glioma regression, microscopically and macroscopically", "setting": "cerebral glioma", "result": "regressed completely"},
      {"measurement": "number of mice with complete tumor regression", "setting": "lymphomas", "result": 11},
      {"measurement": "tumor response in vivo", "setting": "[1]", "result": "regression"},
      {"measurement": "expression of HSV-tk-β-galactosidase construct under GCV treatment", "setting": "[2]", "result": "unaffected"}
    ]}
  ]
}
